The source of these data is US20210048443A1, “METHOD FOR DIAGNOSING HAEMOSTASIS DISORDERS USING ACTIVATED CHARCOAL” (UNIVERSITÉ DE NAMUR ASBL, priority 2018, published 2021).

Each structure is given as a SMILES string.

In one series the test system is Protein C activity. As to the kind of experiment: Protein C activity assay, interference of direct oral anticoagulants. It counts as biochemical. The following applies: arrow grades; chromogenic and antigen-based assays unaffected, clot-based affected. An excerpt: (§1) Coagulation tests or assays most affected by the presence of anticoagulants in the plasma sample will be the tests that involve the clotting factor to which the coagulation inhibitor is directed, leading to false-positive or false-negative results (Table 1).

In another series the test system is Antithrombin activity. The series is described as follows: Antithrombin activity assay, interference of direct oral anticoagulants. It counts as biochemical. As to conditions: arrow grades.
From the text: as §1

Series [1] relates to platelet-poor plasma. The series is described as follows: activated Partial Thromboplastin Time (aPTT) assay on plasma with DOACs. The class given is biochemical. The following applies: for Effect on aPTT of platelet-poor plasma: increasing concentrations of DOACs, no charcoal (FIG. 2a). The method, then: (§2) Standard tests for in vitro diagnosis of a haemostasis disorder, for example in hospital laboratories, are generally performed on plasma samples obtain from a patient. For the preparation of such plasma samples, blood components of a blood sample from a patient are typically separated by two centrifugation steps, both at 2500 g for 15 min (FIG. 1). The first centrifugation step will separate the blood in solid substances (e.g. red and white blood cells) (i.e. the lower phase) and blood plasma (i.e. upper phase). Subsequently, the blood plasma is collected and submitted to a second centrifugation step, which pelletizes the residual blood cells and/or platelets. The upper phase obtained by the second centrifugation step (i.e. platelet-poor plasma) can be used for haemostatic tests. However, the platelet-poor plasma obtained by standard methods will comprise direct anticoagulants (e.g. DOACs), if the patient is treated therewith, which may interfere with several clotting times tests (Table 1).
(§3) A blood sample obtained from a subject was centrifuged at 2500 g during 15 min to separate the blood into solid substances (e.g. red and white blood cells) (i.e. lower phase) and blood plasma (i.e. upper phase).
The plasma obtained from the first (and only) centrifugation step was incubated with activated charcoal (10 mg/ml of plasma) for 5 minutes and the plasma was subsequently recovered from the activated charcoal by passing the plasma through a filter with 0.65 μm pores (FIG. 3). Passing the plasma through the filter was achieved by a short centrifugation. The filter with 0.65 μm pores allowed to efficiently remove the activated charcoal and residual blood cells and/or platelets, which have a larger size than 0.65 μm, from the plasma with a minimal interference with blood coagulation tests.
Plasma was obtained by centrifuging once a blood sample obtained from a subject as described in Example 2. The plasma sample was incubated with different concentrations of activated charcoal (i.e. 5 mg/ml, 10 mg/ml or 15 mg/ml) for 5 minutes and the plasma was subsequently recovered from the activated charcoal by passing the plasma through a filter with 0.65 μm pores and activated charcoal by a short centrifugation.

The next series concerns PT/clotting factors. The series is described as follows: PT/clotting factors, interference of direct oral anticoagulants. It counts as biochemical. As to conditions: arrow grades, key not given; all factors affected.
From the text: as §1

The next series relates to Protein S activity. As to the kind of experiment: Protein S activity assay, interference of direct oral anticoagulants. It counts as biochemical. As to conditions: arrow grades; antigen-based assay unaffected, clot-based affected.
From the text: as §1

The next series concerns Lupus anticoagulant. As to the kind of experiment: Lupus anticoagulant test, interference of direct oral anticoagulants. The following applies: arrow grades; false positive due to high screen/confirmation assay ratios. The class given is biochemical.
From the text: as §1

The test system of series [2] is platelet-poor plasma. The series is described as follows: Prothrombin Time (PT) assay on plasma with DOACs. It counts as biochemical. As to conditions: for Effect on PT of platelet-poor plasma: increasing concentrations of DOACs, no charcoal (FIG. 2b). The method, then: as §2, with “For” for “Standard tests for in vitro diagnosis of a haemostasis disorder, for example in hospital laboratories, are generally performed on plasma samples obtain from a patient. For”
as §3
The plasma obtained from the first (and only) centrifugation step was incubated with activated charcoal (10 mg/ml of plasma) for 5 minutes and the plasma was subsequently recovered from the activated charcoal by passing the plasma through a filter with 0.65 μm pores (FIG. 3). Passing the plasma through the filter was achieved by a short centrifugation.
The plasma sample was incubated with different concentrations of activated charcoal (i.e. 5 mg/ml, 10 mg/ml or 15 mg/ml) for 5 minutes and the plasma was subsequently recovered from the activated charcoal by passing the plasma through a filter with 0.65 μm pores and activated charcoal by a short centrifugation.

The next series deals with aPTT/clotting factors. As to the kind of experiment: aPTT/clotting factors, interference of direct oral anticoagulants. The following applies: arrow grades, key not given; all factors affected. It counts as biochemical.
From the text: as §1

The test system of a further series is APCR. As to the kind of experiment: APCR (activated protein C resistance) assay, interference of direct oral anticoagulants. The class given is biochemical. As to conditions: for Interference with APCR: arrow grades, aPTT-based assays are mostly affected.
From the text: as §1

For series [3] the following is noted: human, in vivo.
For a further series, the system named is patient's plasma. As to the kind of experiment: LA diagnostic assays (PTT LA, Staclot LA, DRVVT, DRVVT confirm) on patient's plasma. It counts as biochemical. The following applies: platelet-poor plasma of patient treated with rivaroxaban (339 ng per ml), DRVVT confirm (FIG. 6). The method, then:
The efficacy of the method as disclosed herein was assessed in a clinical situation. […] For LA diagnosis, several in vitro diagnosis assays were performed on the patient's plasma, including Partial Thromboplastin Time-Lupus anticoagulant Screen (PTT LA), PTT LA confirm (Staclot LA), Dilute Russel Viper Venom Time screen (DRVVT) and DRVVT confirm.

As to `COc1ccc(-n2nc(C(N)=O)c3c2C(=O)N(c2ccc(N4CCCCC4=O)cc2)CC3)cc1` [Apixaban, 1-(4-methoxyphenyl)-7-oxo-6-[4-(2-oxopiperidin-1-yl)phenyl]-4,5-dihydropyrazolo[3,4-c]pyridine-3-carboxamide], the “Interference with Protein C activity” value with Protein C activity is recorded as “—/↑”. Also, the “Interference with Antithrombin activity” value in the series with Antithrombin activity is “—/↑”. In the series with platelet-poor plasma [1], the “Effect on aPTT of platelet-poor plasma” value was “prolonged”. Moreover, the “Interference with PT/clotting factors” value with PT/clotting factors is listed as “↓/↓↓”. For the same molecule, the “Interference with Protein S activity” value in the series on Protein S activity was “—/↑”. For the same molecule, in the series on Lupus anticoagulant, the “Interference with Lupus anticoagulant” value is “—/↑”. Besides, the “Effect on PT of platelet-poor plasma” value in the series with platelet-poor plasma [2] is reported as “prolonged”. In the series with aPTT/clotting factors, the “Interference with aPTT/clotting factors” value is given as “↓/↓↓”. Also, the “Interference with APCR” value in the series on APCR was “↑”.
In the case of `COc1ccc(NC(=O)c2ccc(C(=N)N(C)C)cc2)c(C(=O)Nc2ccc(Cl)cn2)c1` [Betrixaban], in the series on platelet-poor plasma [1], the “Effect on aPTT of platelet-poor plasma” value is “prolonged”. In the series on PT/clotting factors, the “Interference with PT/clotting factors” value is given as “↓↓”. The “Effect on PT of platelet-poor plasma” value with platelet-poor plasma [2] is listed as “prolonged”. Besides, the “Interference with aPTT/clotting factors” value in the series on aPTT/clotting factors was “↓↓”.
With `CN1CCc2nc(C(=O)N[C@@H]3C[C@@H](C(=O)N(C)C)CC[C@@H]3NC(=O)C(=O)Nc3ccc(Cl)cn3)sc2C1` [Edoxaban, N′-(5-chloropyridin-2-yl)-N-[(1S,2R,4S)-4-(dimethylcarbamoyl)-2-[(5-methyl-6,7-dihydro-4H-[1,3]thiazolo[5,4-c]pyridine-2-carbonyl)amino]cyclohexyl]oxamide], in the series with Antithrombin activity, the “Interference with Antithrombin activity” value was “—/↑”. In the series with platelet-poor plasma [1], the “Effect on aPTT of platelet-poor plasma” value is “prolonged”. Moreover, the “Interference with PT/clotting factors” value in the series with PT/clotting factors was “↓↓”. Also, the “Interference with Protein S activity” value in the series with Protein S activity was “↑”. Moreover, in the series on Lupus anticoagulant, the “Interference with Lupus anticoagulant” value is reported as “↑/↑↑”. In addition, the “Interference with aPTT/clotting factors” value in the series on aPTT/clotting factors was “↓/↓↓”. Further, in the series with APCR, the “Interference with APCR” value was “↑”.
Consider `O=C(NC[C@H]1CN(c2ccc(N3CCOCC3=O)cc2)C(=O)O1)c1ccc(Cl)s1` [Rivaroxaban, 5-Chloro-N-({(5S)-2-oxo-3-[4-(3-oxo-4-morpholinyl)phenyl]-1,3-oxazolidin-5-yl}methyl)-2-thiophenecarboxamide], for which, in the series with Protein C activity, the “Interference with Protein C activity” value was “—/↑”. Further, the “Interference with Antithrombin activity” value with Antithrombin activity was “—/↑”. Moreover, the “Effect of Rivaroxaban on aPTT after activated charcoal treatment” value in the series with platelet-poor plasma [1] (activated charcoal 5, 10 or 15 mg/ml, 5 minutes, 0.65 μm filter, Rivaroxaban up to 1000 ng/ml (FIG. 5a)) is reported as “completely removed”. In the series with platelet-poor plasma [1], the “Effect on aPTT of platelet-poor plasma” value is “prolonged”. For the same molecule, in the series on PT/clotting factors, the “Interference with PT/clotting factors” value is on record as “↓↓/↓↓↓”. For the same molecule, the “rivaroxaban per ml of plasma in patient plasma sample” value in [3] is given as 339 ng per ml. Also, the “Interference with Protein S activity” value with Protein S activity is “—/↑”. In the series on Lupus anticoagulant, the “Interference with Lupus anticoagulant” value is “↑/↑↑”. The “Effect of Rivaroxaban on PT after activated charcoal treatment” value in the series with platelet-poor plasma [2] (activated charcoal 5, 10 or 15 mg/ml, 5 minutes, 0.65 μm filter, Rivaroxaban up to 1000 ng/ml (FIG. 5b)) is “completely removed”. Further, in the series on platelet-poor plasma [2], the “Effect on PT of platelet-poor plasma” value is “prolonged”. Also, the “Interference with aPTT/clotting factors” value with aPTT/clotting factors is given as “↓↓”. For the same molecule, the “Interference with Pefakit APCR Factor V Leiden” value in the series with APCR (Pefakit APCR Factor V Leiden kit) is given as “No interference”. The “Interference with APCR” value with APCR is given as “↑”. The “Clotting time in LA diagnostic assays, untreated plasma” value in the series with patient's plasma is given as “prolongs the clotting time”.
